In patent publication US4327224A, “α-[(alkylamino)alkyl]-4-hydroxy-3-(alkylthio)benzenemethanols, derivatives thereof and intermediates therefor” (Sterling Drug Inc., priority 1976, dated 1982):
Counter-ions that a name gives are not always drawn.

Tests used:
[1] = test system: respiratory smooth muscle; test: Inhibition of histamine-induced bronchoconstriction in the dog (β-adrenergic stimulant activity); type: in vivo; conditions: 100-200 mcg/kg, over a period of 2 hours
systolic blood pressure = test: Reduction in systolic blood pressure in the unanesthetized spontaneous hypertensive rat (antihypertensive activity); type: in vivo; conditions: single oral medication
Method: Antihypertensive activity was determined on the basis of the observed reduction in systolic blood pressure measured according to the method of H. Kersten et al., J. Lab. and Clin. Med. 32, 1090 (1947) following a single oral medication in the unanesthetized spontaneous hypertensive rat described by Okamato et al., Japan Circulation J. 27, 282 (1963).

[2] = test system: hind limb vasculature of the anesthetized dog; isolated rabbit ear artery; test: Reduction in perfusion pressure in hind limb vasculature of the anesthetized dog and in the isolated rabbit ear artery (vasodilator activity); type: in vivo
Text: 17, 357 (1972), and also on the basis of percent reduction in perfusion pressure as measured in the isolated rabbit ear artery according to the method described by De La Lande et al. Aust. J. Exp. Biol. Med. Sci. 43, 639 (1965).

cardiac muscle = test: Increase in heart rate (β-adrenergic stimulant activity); type: in vivo; conditions: dog; 100-200 mcg/kg
β-adrenergic [3] = test: Inhibition of isoproterenol-induced heart rate elevation in the pentobarbitalized dog (β-adrenergic blocking activity); type: in vivo; conditions: test compound 1.0 mg/kg, isoproterenol intravenous
β-adrenergic [4] = conditions: Kaiser et al. 1975; cited from earlier work
β-adrenergic [5] = conditions: Kaiser et al. 1975; cited from earlier work; remark: listed apart in the source

SMILES | inhibition of the histamine-induced bronchoconstriction [1] | antihypertensive activity (reduction in systolic blood pressure) (systolic blood pressure) | vasodilator activity (reduction in perfusion pressure) [2] | increase in heart rate (β-adrenergic stimulant activity) (cardiac muscle) | % Inhibition of Heart Rate Elevation (β-adrenergic [3]) | β-adrenergic agonist activity (β-adrenergic [4]) | β-adrenergic antagonistic activity (β-adrenergic [5])
CSc1cc(C(O)CNC(C)(C)C)ccc1OC(C)=O (stereo not drawn) [Example 3, α-[(tert-butylamino)methyl]-4-hydroxy-3-(methylthio)benzenemethanol 4-acetate hydrochloride] | 50% | antihypertensive | vasodilator activity | increase in heart rate | 50% |  | 
C[S+]([O-])c1cc(C(O)CNC(C)(C)C)ccc1O (stereo not drawn) [Example 4, α-[(t-butylamino)methyl]-4-hydroxy-3-(methylsulfinyl)benzenemethanolmethanesulfonate] | 50% | antihypertensive | vasodilator activity | increase in heart rate | 100% |  | 
CC(C)(C)NCC(O)c1ccc(O)c(S(C)(=O)=O)c1 (stereo not drawn) [Example 6, α-[(t-butylamino)methyl]-4-hydroxy-3-(methylsulfonyl)benzenemethanolmethanesulfonate] |  |  |  |  | 87% |  | 
CC(C)(C)NCC(O)c1ccc(O)c(S(C)(=O)=O)c1 (stereo not shown) [drawing 3] |  |  |  |  |  | weakly active | exhibits β-adrenergic antagonistic activity
